Key:
PDPN = test: Cell surface expression of PDPN by flow cytometry; format: cell-based, human; conditions: 30 min post-treatment; Gal-8 0.2 μM
Protocol: Primary LECs were serum-starved overnight in basal EBM-2 medium. The cells were incubated with or without VEGF-C (50 ng/ml, PeproTech) or Gal-8 (0.2 μM) in serum-free EBM-2 medium for 10 and 30 min. At the end of the incubation period, cells were lifted with StemPro® Accutase® cell dissociation reagent (Invitrogen), washed with PBS and fixed with 4% paraformaldehyde/PBS on ice for 10 min, and were then stained using rat anti-human PDPN (1:500, BioLegend) and mouse anti-human VEGFR-3 (clone 9D9F9) (1:100, BioLegend) primary antibodies in cell staining buffer (BioLegend, 45 min on ice) and Alexa Fluor® 488 donkey anti-rat and Alexa Fluor® 647 anti-mouse secondary antibodies (1:1000, Invitrogen, 30 min on ice). For negative control, the primary antibodies were omitted. The stained cells were fixed with 2% paraformaldehyde/PBS, analyzed with BD FACSCalibur, and the mean fluorescence intensity of VEGFR-3 and PDPN were quantified with the FlowJo software (version 9.5.2).

PDPN and integrin α5β1 = target: T1, PDPN and integrin α5β1 (Homo sapiens, UniProt P05556+P08648+Q86YL7); test: Immunoprecipitation with anti-PDPN from LEC lysates; format: cell-based; conditions: galectin-8 for 15 min at 37° C.
T1 construct: endogenous in cells; host or cells: primary lymphatic endothelial cells (LECs)
Protocol: Mouse isotype antibody (15 μg, Santa Cruz Biotechnology) and anti-PDPN (15 μg, clone E-1, Santa Cruz Biotechnology) were immobilized onto AminoLink Plus coupling resin (Pierce) by sodium cyanoborohydride according to manufacturer's instructions. Primary LECs were serum-starved overnight and treated with galectin-8 (0.2 μM) for 15 min at 37° C. After treatment, cells were lysed with IP lysis/wash buffer (25 mM Tris, 150 mM NaCl, 1 mM EDTA, 1% NP-40, 5% glycerol; pH 7.4) supplemented with protease inhibitor cocktails (Roche). After centrifugation (10 min, 13,000 rpm), supernatants (500 μg protein lysates) were pre-cleared by incubation for 1 hour with Pierce control agarose resin at 4° C. The clarified samples were incubated with the Ab-conjugated agarose resins overnight at 4° C. Immunoprecipitates were washed three times with IP lysis/wash buffer and once with conditioning buffer provided by the kit (Pierce). The bound proteins were eluted with low pH elution buffer, neutralized with Tris-HCl (pH 9.0), and analyzed with control inputs by western blotting using anti-integrin al (1:1,000, Abcam), anti-integrin α5 (clone H-104, 1:1,000, Santa Cruz Biotechnology), anti-integrin ([…] (clone N-20, 1:1,000, Santa Cruz Biotechnology), anti-PDPN, anti-galectin-8 (clone NBP1-66520, 1:1,000, Novus Biologicals) and anti-GAPDH as described in examples herein. […]

VEGFR-3 = test: Affinity precipitation assay, VEGFR-3; format: binding, human; conditions: galectin-conjugated agarose beads, LEC lysates
Protocol: Five mg of plant lectins (Vector Labs) and galectins were conjugated to 330 mg of Pierce® NHS-activated agarose dry resin in accordance with the manufacturer's instructions (Thermo Scientific). Primary LECs (Lonza) were lysed in Triton lysis buffer (20 mM Tris-HCl, pH 7.4; 150 mM NaCl; 0.5% Triton X-100 with protease inhibitor cocktail). LEC lysates (250 μg in 500 μL lysis buffer supplemented with 10 mM MgCl2) were incubated with 40 μL (50% slurry) of agarose-conjugated lectins (4° C., overnight). Beads were pelleted by centrifugation at 3000 rpm for 1 min. Non-specific binding proteins were removed by washing the beads with Triton lysis buffer once and PBS twice. Supernatants were discarded; bound proteins were eluted by boiling the beads with 20 μL of 2× Laemmli sample buffer for 7 min, and examined by western blotting.
Next, a series of examples were performed to determine whether VEGF-C-induced lymphangiogenesis is dependent on Gal-8. To determine whether VEGFR-3 is a Gal-8-binding protein, LEC lysates were incubated with Gal-8-conjugated agarose beads in the presence or absence of 0.1 M of lactose (an inhibiting sugar) or sucrose (a non-inhibiting sugar). Bound proteins were examined and were compared to total cell lysates (input) by western blot using anti-VEGFR-3 antibody. Three forms of VEGFR-3 (125 kDa, 175 kDa and 195 kDa) were detected in total cell lysates (FIG. 5A) (Bando, H., et al. 2004. Int J Cancer 111:184-191.). […] Having shown that Gal-8 binds to VEGFR-3 in LECs and that the carbohydrate-binding activity of Gal-8 is required for the synergistic effect of Gal-8 on VEGF-C-induced LEC sprouting, it was of interest to determine whether VEGFR-3 bears 3′-sialylated glycans.

VEGF-C = target: T2, VEGF-C (Homo sapiens, UniProt P49767); test: Affinity precipitation assay, VEGF-C; format: binding; conditions: galectin-conjugated agarose beads
T2 construct: Primary LECs were incubated with agarose beads (control), and galectin-conjugated agarose beads at 4° C. overnight; endogenous in cells; host or cells: primary lymphatic endothelial cells (LECs)
T2 sequence (P49767 112-227): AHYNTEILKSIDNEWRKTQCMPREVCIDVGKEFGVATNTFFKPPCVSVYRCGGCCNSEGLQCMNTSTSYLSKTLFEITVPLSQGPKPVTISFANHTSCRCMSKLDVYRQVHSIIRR

T1 sequence (Q86YL7 23-162): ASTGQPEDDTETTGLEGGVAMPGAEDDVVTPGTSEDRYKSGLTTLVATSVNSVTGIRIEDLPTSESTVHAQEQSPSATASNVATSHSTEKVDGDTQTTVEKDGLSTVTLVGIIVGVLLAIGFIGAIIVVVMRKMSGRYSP
T1 sequence (P08648 42-894 limits assumed): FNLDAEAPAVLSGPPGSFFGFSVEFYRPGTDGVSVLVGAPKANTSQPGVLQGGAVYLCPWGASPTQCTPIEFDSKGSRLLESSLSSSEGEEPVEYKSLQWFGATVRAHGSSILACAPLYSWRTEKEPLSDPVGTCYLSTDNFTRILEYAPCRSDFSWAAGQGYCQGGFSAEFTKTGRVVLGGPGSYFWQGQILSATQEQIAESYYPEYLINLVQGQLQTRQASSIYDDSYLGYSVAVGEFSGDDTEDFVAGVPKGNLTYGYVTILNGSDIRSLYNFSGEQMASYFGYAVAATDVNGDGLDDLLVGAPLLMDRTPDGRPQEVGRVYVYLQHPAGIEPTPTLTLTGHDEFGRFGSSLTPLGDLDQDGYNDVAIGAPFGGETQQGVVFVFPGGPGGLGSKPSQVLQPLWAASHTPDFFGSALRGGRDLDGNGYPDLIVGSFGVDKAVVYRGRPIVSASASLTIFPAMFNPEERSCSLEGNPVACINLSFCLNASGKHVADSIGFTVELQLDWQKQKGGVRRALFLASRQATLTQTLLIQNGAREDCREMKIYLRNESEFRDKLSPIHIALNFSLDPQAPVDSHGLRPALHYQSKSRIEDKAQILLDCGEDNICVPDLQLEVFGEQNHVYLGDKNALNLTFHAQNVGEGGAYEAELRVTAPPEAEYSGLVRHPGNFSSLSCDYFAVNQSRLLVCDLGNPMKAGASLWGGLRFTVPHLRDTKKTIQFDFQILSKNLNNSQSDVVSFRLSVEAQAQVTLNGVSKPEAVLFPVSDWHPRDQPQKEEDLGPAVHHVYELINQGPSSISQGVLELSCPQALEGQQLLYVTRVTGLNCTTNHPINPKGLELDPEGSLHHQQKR
T1 sequence (P08648 895-1049 limits assumed): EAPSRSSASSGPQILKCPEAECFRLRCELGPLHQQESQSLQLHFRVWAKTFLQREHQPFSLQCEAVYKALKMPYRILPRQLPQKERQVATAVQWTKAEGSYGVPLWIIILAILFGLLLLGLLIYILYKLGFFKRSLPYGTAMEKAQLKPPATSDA
T1 sequence (P05556 21-798): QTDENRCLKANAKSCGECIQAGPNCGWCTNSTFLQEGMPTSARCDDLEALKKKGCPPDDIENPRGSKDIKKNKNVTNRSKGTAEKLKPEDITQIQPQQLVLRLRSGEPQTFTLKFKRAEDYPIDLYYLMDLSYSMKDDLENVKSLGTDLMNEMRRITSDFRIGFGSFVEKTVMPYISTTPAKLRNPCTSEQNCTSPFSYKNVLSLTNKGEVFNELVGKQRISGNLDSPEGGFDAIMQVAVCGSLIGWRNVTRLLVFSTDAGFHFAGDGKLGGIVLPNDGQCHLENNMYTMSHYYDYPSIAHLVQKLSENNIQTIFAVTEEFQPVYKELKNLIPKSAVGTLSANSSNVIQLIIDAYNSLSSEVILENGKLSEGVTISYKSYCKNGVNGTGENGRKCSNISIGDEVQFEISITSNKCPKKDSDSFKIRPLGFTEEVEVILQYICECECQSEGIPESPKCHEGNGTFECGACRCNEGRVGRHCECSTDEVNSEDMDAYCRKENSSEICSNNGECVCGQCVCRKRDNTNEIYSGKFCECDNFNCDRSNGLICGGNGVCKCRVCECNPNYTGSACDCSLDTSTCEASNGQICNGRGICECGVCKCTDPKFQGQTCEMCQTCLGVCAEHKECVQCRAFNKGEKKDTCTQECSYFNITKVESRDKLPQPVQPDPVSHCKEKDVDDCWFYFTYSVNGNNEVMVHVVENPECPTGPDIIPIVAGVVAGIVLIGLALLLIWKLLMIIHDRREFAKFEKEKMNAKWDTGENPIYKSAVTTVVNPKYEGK

Gal-8: recombinant galectin-8, tandem-repeat type galectin with two different CRDs
increase of cell surface expression of PDPN (PDPN): about 30% | association between PDPN and integrin α5β1 (PDPN and integrin α5β1): increased association between PDPN and integrin α5β1 | binding to VEGFR-3 (in words) (VEGFR-3): interacted with 125 and 195 kDa VEGFR-3 and not with 175 kDa VEGFR-3 | binding to VEGF-C (in words) (VEGF-C): does not interact with VEGF-C
